The source of these data is article PMC9145702, “Design, Synthesis and Evaluation of Fused Bicyclo[2.2.2]octene as a Potential Core Scaffold for the Non-Covalent Inhibitors of SARS-CoV-2 3CL^pro Main Protease” (Pharmaceuticals, 2022).

Data set [1] has as its target SARS-CoV-2 3CL^pro main protease (Severe acute respiratory syndrome coronavirus 2, UniProt P0DTD1). Put plainly: FRET-based assay of SARS-CoV-2 3CL^pro main protease inhibition activity. In kind it is biochemical. The following applies: for first screening result (hit candidate): first FRET screening at 64 μM of each compound, before accounting for compound effect on fluorescence; for screening result after accounting for effect on measured fluorescence: 64 μM, difference between 3CL(+) and 3CL(-) fluorescence.

The next data set deals with 3CL^pro. Details: method as in PMID 33817567. To be noted: compared with 11a; read-out: inhibition activity; cited from earlier work.

A word on the melting point: it is the temperature of the solid-liquid transition.

pIC50: −log10 of the molar value. Like-named read-outs stand apart in the source and are kept apart here.

For the molecule `C/C(=N\NC(=O)c1cccnc1)C1=CC2(NC(=O)c3ccccc3)C3C(=O)N(NC(=O)c4cccnc4)C(=O)C3C1(C)C1C(=O)N(NC(=O)c3cccnc3)C(=O)C12` (stereo not drawn) [11o, N-[2,3,3a,4a,5,6,7,7a,8,8a-Decahydro-8-methyl-1,3,5,7-tetraoxo-2,6-bis(3-pyridyl-carboamino)-9-(1-(N-[3-pyridylcarbo]hydrazonyl)eth-1-yl)-4,8-ethenobenzo[1,2-c:4,5-c′]dipyrrol-4(1H)-yl]benzamide], the melting point lay within 284 to 286 °C. Regarding `O=C(NC12C=CC(c3cccs3)(C3C(=O)N(NC(=O)c4ccccn4)C(=O)C31)C1C(=O)N(NC(=O)c3ccccn3)C(=O)C12)c1ccccc1` (stereo not drawn) [11f, N-[2,3,3a,4a,5,6,7,7a,8,8a-Decahydro-1,3,5,7-tetraoxo-2,6-bis(2-pyridylcarboamino)-8-(2-thienyl)-4,8-ethenobenzo[1,2-c:4,5-c′]dipyrrol-4(1H)-yl]benzamide], the melting point is 288 to 291 °C (dec.). In addition, the “first screening result (hit candidate)” value in data set [1] is listed as “candidate hit compounds”.

`O=C(NC12C=CC(c3ccccc3)(C3C(=O)N(NC(=O)c4ccccn4)C(=O)C31)C1C(=O)N(NC(=O)c3ccccn3)C(=O)C12)c1ccccc1` (stereo not drawn) [11a, N-[8-Phenyl-2,3,3a,4a,5,6,7,7a,8,8a-decahydro-1,3,5,7-tetraoxo-2,6-bis(2-pyridylcarboamino)-4,8-ethenobenzo[1,2-c:4,5-c′]dipyrrol-4(1H)-yl]benzamide] registered a melting point of 263 to 265 °C. Besides, in data set [1], the “screening result after accounting for effect on measured fluorescence” value was “remained as hit candidates” and the “first screening result (hit candidate)” value is given as “candidate hit compounds”. The same molecule gave a pIC50 in data set [1] (FRET assay, isolated SARS-CoV-2 3CL^pro, compound concentrations 200, 100, 50 and 25 μM) of 3.99.

For the molecule `O=C(NN1C(=O)C2C(C1=O)C1(c3cccs3)C=CC2(NC(=O)c2ccccc2)C2C(=O)N(NC(=O)c3cccnc3)C(=O)C21)c1cccnc1` (stereo not drawn) [11g, N-[2,3,3a,4a,5,6,7,7a,8,8a-Decahydro-1,3,5,7-tetraoxo-2,6-bis(3-pyridylcarboamino)-8-(2-thienyl)-4,8-ethenobenzo[1,2-c:4,5-c′]dipyrrol-4(1H)-yl]benzamide], the melting point is 259 to 262 °C (dec.). Turning to `COc1ccc(C2=CC3(NC(=O)c4ccccc4)C4C(=O)N(NC(=O)c5ccccn5)C(=O)C4C2(C)C2C(=O)N(NC(=O)c4ccccn4)C(=O)C23)cc1` (stereo not drawn) [11l, N-[2,3,3a,4a,5,6,7,7a,8,8a-Decahydro-8-methyl-9-(4-methoxyphenyl)-1,3,5,7-tetraoxo-2,6-bis(2-pyridylcarboamino)-4,8-ethenobenzo[1,2-c:4,5-c′]dipyrrol-4(1H)-yl]benzamide], the melting point is 298 to 303 °C (dec.).

On to `Cc1c(O)cccc1C(=O)N[C@@H](CSc1ccccc1)[C@H](O)CN1C[C@H]2CCCC[C@H]2C[C@H]1C(=O)NC(C)(C)C` [nelfinavir], for which the pIC50 with 3CL^pro is about 4.40.

`O=C(NC12C=CC(c3ccco3)(C3C(=O)N(NC(=O)c4ccccn4)C(=O)C31)C1C(=O)N(NC(=O)c3ccccn3)C(=O)C12)c1ccccc1` (stereo not drawn) [11i, N-[8-(2-Furyl)-2,3,3a,4a,5,6,7,7a,8,8a-decahydro-1,3,5,7-tetraoxo-2,6-bis(2-pyridylcarboamino)-4,8-ethenobenzo[1,2-c:4,5-c′]dipyrrol-4(1H)-yl]benzamide] gave a melting point of 332 to 334 °C. Besides, in data set [1], the “first screening result (hit candidate)” value is on record as “candidate hit compounds”. In the case of `COc1ccc(C2=CC3(NC(=O)c4ccccc4)C4C(=O)N(NC(=O)c5cccnc5)C(=O)C4C2(C)C2C(=O)N(NC(=O)c4cccnc4)C(=O)C23)cc1` (stereo not drawn) [11m, N-[2,3,3a,4a,5,6,7,7a,8,8a-Decahydro-8-methyl-9-(4-methoxyphenyl)-1,3,5,7-tetraoxo-2,6-bis(3-pyridylcarboamino)-4,8-ethenobenzo[1,2-c:4,5-c′]dipyrrol-4(1H)-yl]benzamide], the melting point is 365 to 369 °C (dec.). The same measure, in the same setting: next, `O=C(NN1C(=O)C2C(C1=O)C1(c3ccco3)C=CC2(NC(=O)c2ccccc2)C2C(=O)N(NC(=O)c3cccnc3)C(=O)C21)c1cccnc1` (stereo not drawn) [11j, N-[8-(2-Furyl)-2,3,3a,4a,5,6,7,7a,8,8a-decahydro-1,3,5,7-tetraoxo-2,6-bis(3-pyridylcarboamino)-4,8-ethenobenzo[1,2-c:4,5-c′]dipyrrol-4(1H)-yl]benzamide]: 272 to 276 °C. Turning to `O=C(NN1C(=O)C2C(C1=O)C1(c3ccccc3)C=CC2(NC(=O)c2ccccc2)C2C(=O)N(NC(=O)c3cccnc3)C(=O)C21)c1cccnc1` (stereo not drawn) [11b, N-[8-Phenyl-2,3,3a,4a,5,6,7,7a,8,8a-decahydro-1,3,5,7-tetraoxo-2,6-bis(3-pyridylcarboamino)-4,8-ethenobenzo[1,2-c:4,5-c′]dipyrrol-4(1H)-yl]benzamide], the melting point was in the range of 278 to 282 °C. Molecule `O=C(NN1C(=O)C2C(C1=O)C1(c3cccs3)C=CC2(NC(=O)c2ccccc2)C2C(=O)N(NC(=O)c3ccncc3)C(=O)C21)c1ccncc1` (stereo not drawn) [11h, N-[2,3,3a,4a,5,6,7,7a,8,8a-Decahydro-1,3,5,7-tetraoxo-2,6-bis(4-pyridylcarboamino)-8-(2-thienyl)-4,8-ethenobenzo[1,2-c:4,5-c′]dipyrrol-4(1H)-yl]benzamide] had a melting point of 310 to 312 °C.

Turning to `COc1ccc(C2=CC3(NC(=O)c4ccccc4)C4C(=O)N(NC(=O)c5ccncc5)C(=O)C4C2(C)C2C(=O)N(NC(=O)c4ccncc4)C(=O)C23)cc1` (stereo not drawn) [11n, N-[2,3,3a,4a,5,6,7,7a,8,8a-Decahydro-8-methyl-9-(4-methoxyphenyl)-1,3,5,7-tetraoxo-2,6-bis(4-pyridylcarboamino)-4,8-ethenobenzo[1,2-c:4,5-c′]dipyrrol-4(1H)-yl]benzamide], the melting point is 387 to 390 °C (dec.). On the same count and under the same terms, the same measure for `O=C(NN1C(=O)C2C(C1=O)C1(c3ccco3)C=CC2(NC(=O)c2ccccc2)C2C(=O)N(NC(=O)c3ccncc3)C(=O)C21)c1ccncc1` (stereo not drawn) [11k, N-[8-(2-Furyl)-2,3,3a,4a,5,6,7,7a,8,8a-decahydro-1,3,5,7-tetraoxo-2,6-bis(4-pyridylcarboamino)-4,8-ethenobenzo[1,2-c:4,5-c′]dipyrrol-4(1H)-yl]benzamide]: 309 to 311 °C.

Turning to `CC1=CC2(c3ccccc3)C3C(=O)N(NC(=O)c4ccccn4)C(=O)C3C1(NC(=O)c1ccccc1)C1C(=O)N(NC(=O)c3ccccn3)C(=O)C12` (stereo not drawn) [11d, N-[8-Phenyl-2,3,3a,4a,5,6,7,7a,8,8a-decahydro-10-methyl-1,3,5,7-tetraoxo-2,6-bis(2-pyridylcarboamino)-4,8-ethenobenzo[1,2-c:4,5-c′]dipyrrol-4(1H)-yl]benzamide], the melting point fell in the range of 271 to 274 °C. With `O=C(NN1C(=O)C2C(C1=O)C1(c3ccccc3)C=CC2(NC(=O)c2ccccc2)C2C(=O)N(NC(=O)c3ccncc3)C(=O)C21)c1ccncc1` (stereo not drawn) [11c, N-[8-Phenyl-2,3,3a,4a,5,6,7,7a,8,8a-decahydro-1,3,5,7-tetraoxo-2,6-bis(4-pyridylcarboamino)-4,8-ethenobenzo[1,2-c:4,5-c′]dipyrrol-4(1H)-yl]benzamide], the melting point lay in the range of 289 to 293 °C.

In the case of `CC1=CC2(c3ccccc3)C3C(=O)N(NC(=O)c4cccnc4)C(=O)C3C1(NC(=O)c1ccccc1)C1C(=O)N(NC(=O)c3cccnc3)C(=O)C12` (stereo not drawn) [11e, N-[8-Phenyl-2,3,3a,4a,5,6,7,7a,8,8a-decahydro-10-methyl-1,3,5,7-tetraoxo-2,6-bis(3-pyridylcarboamino)-4,8-ethenobenzo[1,2-c:4,5-c′]dipyrrol-4(1H)-yl]benzamide], the melting point was 345 to 347 °C (dec.). In addition, in data set [1], the pIC50 was about 3.70, the “screening result after accounting for effect on measured fluorescence” value is “remained as hit candidates” and the “first screening result (hit candidate)” value is on record as “candidate hit compounds”.
